Data taken from publication PMC6349854, “GLUT1 and GLUT3 involvement in anthocyanin gastric transport- Nanobased targeted approach” (Scientific Reports, 2019).

Experiments:
[1] = tested on: MKN-28 cells; experiment: Transepithelial transport of anthocyanins through MKN-28 gastric barrier (apical to basolateral); format: in vitro ADME, human; conditions: for paracellular transport efficiency: 4 °C; for paracellular transport efficiency / transport efficiency at 180 minutes: apical pH 5.0, basolateral pH 7.4, anthocyanin 500 µM; for transport efficiency at 180 minutes: 37 °C
Experimental: (§1) Transepithelial transport experiments were performed using a similar procedure from the one described elsewhere. […] Cells were cultured at 37 °C in an atmosphere of 5% CO2 and the medium was changed every two days.
(§2) After this treatment, media was removed and cells were washed with Hanks’ medium (HBSS), pH 7.4 at the basolateral side and with HBSS pH 5.0 at the apical side. Anthocyanin solution (500 µM) in HBSS pH 5.0 was added to the apical side of the cells and HBSS containing 2% fetal bovine serum free of polyphenols was added to the basolateral compartment. Transepithelial transport was followed as a function of time, at 4 °C and 37 °C. Samples were taken from the basolateral side and replaced by fresh medium. The samples (150 µL) were acidified with HCl 6 M to a final concentration of 1% and frozen at −18 °C until HPLC analysis.

[2] = tested on: Mv3glc transport through MKN-28 barrier; experiment: Effect of transporter inhibitors on anthocyanin transport through MKN-28 barrier; format: cell-based, human
Experimental: as §1, §2

SMILES | paracellular transport efficiency [1] | transport efficiency at 180 minutes ([1]; 180 min) | other results
COc1cc(-c2[o+]c3cc(O)cc(O)c3cc2O[C@@H]2O[C@H](CO)[C@@H](O)[C@H](O)[C@H]2O)cc(OC)c1O [Mv3glc, Malvidin-3-O-glucoside] | below 2% | ~ 10% | inhibitory effect on transport when both transporters inhibited simultaneously ([1]; GLUT1 and GLUT3 silenced together (AuNP@GLUT1 + 3), 24 h + 24 h): much more pronounced and additive; relative reduction of transport ([1]; after silencing of GLUT1 or GLUT3 by nanoconjugates 24 h + 24 h, 180 min, versus respective control (AuNP@PEG)): around 25%
COc1cc(-c2[o+]c3cc(O)cc(O)c3cc2O[C@@H]2O[C@H](CO)[C@@H](O)[C@H](O)[C@H]2O)ccc1O [Pn3glc, Peonidin-3-O-glucoside] | below 2% | ~ 10% | 
CCCN(CCC)S(=O)(=O)c1ccc(C(=O)O)cc1 [Probenecid] |  |  | effect on Mv3glc transport ([2]; inhibitor 50 µM, apical pH 5.0, basolateral pH 7.4): no effect
C=C1[C@@H](C)[C@H]2[C@H](Cc3ccccc3)NC(=O)[C@]23OC(=O)/C=C/[C@H](O)CCC[C@@H](C)C/C=C/[C@H]3[C@@H]1O [cytochalasin B] |  |  | inhibitory effect on anthocyanin transport ([2]; cytochalasin B 50 µM added simultaneously with AuNP@GLUT1 + 3): inhibitory effect was higher
